Patent US3941882A, “Rodenticidal imidazo-pyridines” (priority 1974, dated 1976)
Values joined by “and” are separate entries in the source; they are usually repeats but may differ in a detail not shown here. Identical values can stand only once.

Tests used:
PTC (IX) = assay: Coagulation factor concentration in dogs, factor IX (Table VI); format: in vivo, dogs (beagles); details: 40 mg./kg. oral x 3 days; per dog
Experimental: (§1) Each of 1-methoxy-6-chloro-2-trifluoromethyl-1H-imidazo-(4,5-b)pyridine and 1-hydroxy-6-chloro-2-trifluoromethyl-1H-imidazo(4,5-b)pyridine was evaluated in coagulation studies in dogs (beagles weighing about 10 kilograms each). Two dogs were employed with each compound, one female and one male.
(§2) In the second part of the evaluation, a sample was taken from each of the same four dogs prior to any treatment (at the same time as the initial sample for the first part of the evaluation), and the samples were pooled and evaluated for the concentration of individual clotting factors, to serve as a control. Following the treatment described above, a sample was again taken from each dog and individually analyzed in the same manner. The control figure was considered as 100 percent and the scores for the treated dogs were reported as percent of the control figure. Analyses were by the following methods:
Ix w. f. stapp, 10 Scand. J. Clin. Lab. Inves. 169 l (1958).

PTA (XI) = assay: Coagulation factor concentration in dogs, factor XI (Table VI); format: in vivo, dogs (beagles); details: 40 mg./kg. oral x 3 days; per dog
Experimental: as §1, §2
Xi s. i. rapaport, 57 J. Lab. Clin. Med. 771 (1961).

Hageman Factor (XII) = assay: Coagulation factor concentration in dogs, factor XII (Table VI); format: in vivo, dogs (beagles); details: 40 mg./kg. oral x 3 days; per dog
Experimental: as §1, §2
Xii o. d. ratnoff in Thrombosis and Bleading Disorders, ed. by N. U. Bang et al. (G. Thieme, and Academic Press, N.Y., 1971), pages 214-221.

Ac Globulin (V) = assay: Coagulation factor concentration in dogs, factor V (Table VI); format: in vivo, dogs (beagles); details: 40 mg./kg. oral x 3 days; per dog
Experimental: as §1
as §2, with “figure.” for “figure. Analyses were by the following methods:”

Proconvertin (VII) = assay: Coagulation factor concentration in dogs, factor VII (Table VI); format: in vivo, dogs (beagles); details: 40 mg./kg. oral x 3 days; per dog
Experimental: as §1, §2
Vii f. bachman et al., 1 Thrombosis Diathes. Haemorrh. 169 (1957)

AHG (VIII) = assay: Coagulation factor concentration in dogs, factor VIII (Table VI); format: in vivo, dogs (beagles); details: 40 mg./kg. oral x 3 days; per dog
Experimental: as §1, §2
Viii r. d. langdell et al., 41 J. Lab. Clin. Med. 637 (1953).

[1] = system: coagulation (prothrombin time, activated partial thromboplastin, thrombin clotting time, fibrinogen); assay: Coagulation studies in dogs: clotting times and fibrinogen (Table V); format: in vivo, dogs (beagles); details: for Activated Partial Thromboplastin Time / Fibrinogen Levels / Prothrombin Time / Thrombin Clotting Time: 40 mg./kg. oral on each of 3 successive days, fourth day, per dog
Experimental: as §1
In the first part of the evaluation, a blood sample was taken from each dog prior to any treatment with the respective compound. The sample was citrated and centrifuged for 10-15 minutes to segregate the plasma, which was separated and quick frozen. The dogs were then treated: each dog received 40 mg./kg. of the respective compound on each of 3 successive days; administration was by the oral route. On the fourth day, blood samples were again taken and processed as described above. Throughout the test, the dogs were provided with adequate food and water and otherwise maintained under good conditions. The samples were subsequently thawed and analyzed for prothrombin time activated partial thromboplastin, thrombin clotting time, and fibrinogen levels. The first three analyses were conducted on a "Bioquest Fibrometer", produced by Baltimore Biological Division of Becton and Dickinson at Cockeysville, Maryland 21030, Fibrinogen levels were determined by the method of H. O. Bang, 9 Scand. J. Clin. Lab. Inves. 205 (1957).

Stuart Factor (X) = assay: Coagulation factor concentration in dogs, factor X (Table VI); format: in vivo, dogs (beagles); details: 40 mg./kg. oral x 3 days; per dog
Experimental: as §1
as §2, with “figure.” for “figure. Analyses were by the following methods:”

Prothrombin (II) = assay: Coagulation factor concentration in dogs, factor II (Table VI); format: in vivo, dogs (beagles); details: 40 mg./kg. oral x 3 days; per dog
Experimental: as §1, §2
Ii f. koller et al., 6 Acta Haem. 1 (1951).

prothrombin time = assay: Prothrombin time in male rats (Tables III and IV); format: in vivo, rats (Harlan albino strain); details: five days, group of 5 rats
Experimental: Representative compounds were evaluated for prothrombin time in standard laboratory male rats (Harlan albino strain) of weanling age. A standard laboratory animal diet was fed to one group of 5 rats to serve as a control; other groups of 5 rats received modified diets, each diet being the standard laboratory animal diet modified by the incorporation therein of 0.08 percent of the respective compound. Feeding was continued for five days, at which time a blood sample was taken from each rat and analyzed for prothrombin time. The analytical method was that of A. J. Quick, "The Determination of Prothrombin," 190 Am. J. Med. Sci. 501 (1935): and it was performed on the "Electra 600", a machine available from the Medical Laboratory Automation, Inc. The results are reported in Table III.
Additional evaluations of the effect of representative compounds of prothrombin time were conducted. The procedures were the same as those reported in Examples 30-33 except that the concentration of the respective compound was 0.02 percent.

Row | Structure (SMILES) | Coagulation Factor, PTC (IX) (PTC (IX)) | Coagulation Factor, PTA (XI) (PTA (XI)) | Coagulation Factor, Hageman Factor (XII) (Hageman Factor (XII)) | Coagulation Factor, Ac Globulin (V) (Ac Globulin (V)) | Coagulation Factor, Proconvertin (VII) (Proconvertin (VII)) | Coagulation Factor, AHG (VIII) (AHG (VIII)) | Activated Partial Thromboplastin Time [1] | Fibrinogen Levels [1] | Prothrombin Time [1] | Thrombin Clotting Time [1] | Coagulation Factor, Stuart Factor (X) (Stuart Factor (X)) | Coagulation Factor, Prothrombin (II) (Prothrombin (II)) | Deaths (prothrombin time; 0.02 percent in diet) | Range of Prothrombin Time (prothrombin time; 0.02 percent in diet) [s] | Deaths (prothrombin time; 0.08 percent in diet) | Range of Prothrombin Time (prothrombin time; 0.08 percent in diet) [s] | Prolongation of activated partial thromboplastin time (in words) ([1]; dogs, 40 mg./kg. oral x 3 days)
1 | On1c(C(F)(F)F)nc2ncc(Cl)cc21 [1-hydroxy-6-chloro-2-trifluoromethyl-1H-imidazo(4,5-b)pyridine] | 45 % of Control and 66 % of Control | 128 % of Control and 140 % of Control | 37 % of Control and 18 % of Control | 100 % of Control | 11 % of Control and 20 % of Control | 94 % of Control and 100 % of Control | 22.9 s and 16.0 s | 223 mg% and 218 mg% | 9.9 s and 6.9 s | 12.2 s and 12.0 s | 11 % of Control and 25 % of Control | 70 % of Control | – | – | – | – | –
2 | COn1c(C(F)(F)F)nc2ncc(Cl)cc21 [1-methoxy-6-chloro-2-trifluoromethyl-1H-imidazo(4,5-b)pyridine] | 26 % of Control and 35 % of Control | 224 % of Control and 200 % of Control | 25 % of Control and 43 % of Control | 100 % of Control | 9 % of Control and 14 % of Control | 124 % of Control and 122 % of Control | 18.9 s and 26.2 s | 236 mg% and 222 mg% | 12.2 s and 12.9 s | 10.5 s and 13.9 s | 4 % of Control and 6 % of Control | 39 % of Control | none | 19.5 to 27.5 | none | 50.1 to 109.1 | prolongs activated partial thromboplastin time
